# Source: article PMC3912015, “Synthetic Multivalent Antifungal Peptides Effective against Fungi” (PLoS ONE, 2014)
# Bridge positions count the residues as written; N and C are the ends. Peptide text beside a SMILES is read from it. I, II: the chains in the order shown.
# Key:
# [1] = Intact peptide after trypsin incubation (mass spectrometry); format: in vitro ADME; conditions: 6 h incubation with trypsin
# Description: (§1) For all the experiments, unless otherwise stated, C. albicans ATCC 10231 strain was used. B4010 (1 mg/mL) was incubated with trypsin (enzyme:peptide ratio 1∶100) at 37°C. 20 µL aliquot of this mixture was withdrawn at various time intervals (0.5, 1, 2, 4 and 6 h) and mixed with 1 µL of trypsin inhibitor. The antifungal activity of the peptide was determined by adding this mixture to 180 µL of inoculum and monitoring the growth at OD600 for 24 h. Similar experiments performed in the presence of trypsin/trypsin inhibitor (without B4010) were used as a positive control. For assessing the antifungal activity in TF, the peptide was dissolved in freshly collected rabbit TF and incubated at 37°C for 6 h. After incubation, an equal volume of an overnight culture of C. albicans (∼10^6 CFU/mL) was mixed with peptides in tear fluid and incubated at 37°C for 24 h. The final concentrations of the peptide were at 4.4, 8.8 and 22 µM. A 100 µL aliquot of serial dilutions (10^2 or 10^3 times) of this mixture were inoculated on a SD agar plate and then incubated for 48 h at 37°C. Culture alone and culture with 50% tear fluid served as the positive control. The data was expressed in % killing with respect to culture without tear fluid.
# Supplementary file pone.0087730.s002.tif: Figure S2 Positive charge electrospray ionization mass spectrometry of B4010 after incubation with trypsin (enzyme:B4010 = 1∶100). […]
# C. albicans ATCC 10231 = format: cell-based; conditions: Candida albicans, 6 h, 5.5 µM
# Description: as §1, with “Culture alone and culture with 50% tear fluid served as the positive control. The data was expressed in % killing with respect to culture without tear fluid.” left out
# To study the effects of metal ions, the broth solution containing C. albicans (OD600 = 0.4–0.6) was adjusted to appropriate final concentrations of metal ions, incubated with 5.5 µM of B4010 for 6 h and the cell viability was determined as before after 48 h. […]
# Haemolytic assay = format: cell-based; conditions: rabbit red blood cells, 440 µM, 4% rabbit erythrocytes, read-out: haemolysis
# Description: Haemolytic activity of peptides and antifungal drugs were determined against rabbit red blood cells. Briefly, serial dilution of peptides/antifungals in PBS was mixed with rRBC (final concentration 4% v/v), incubated at 37°C for 1 h and centrifuged at 3000 rpm for 10 minutes. The release of hemoglobin in the supernatant was monitored by measuring the hemoglobin absorbance at 576 nm. The readings from cell suspension in PBS (without any additives) or 1% Triton-X100 were used as 0% or 100% haemolysis.
# F. solani DF1500 = test: microbe, parasite or virus in culture; format: cell-based; conditions: 48 h
# [2] = format: biochemical
# Description: Small unilamellar vesicles (SUVs) were prepared using PC/PE/PI or PS lipids (5∶2.5∶2.5) containing 15 wt% ergosterol or PC/Cholesterol (10∶1). For the preparation of PC/PE/PI or PS/Erg SUV, the lipids were dissolved in chloroform/methanol (2∶1, v/v) in a glass tube. Ergosterol was dissolved in same solvent and added to lipid mixture to make final ergosterol content of 15 wt%. The Lipid-ergosterol mixture was dried using nitrogen gas to form lipid layer. The film was hydrated in a buffer containing 20 mM PBS (pH 7), vortexed and sonicated. Each cycle of sonication (5 sec, 40°C) was followed by freezing in liquid nitrogen and thawing on a water bath kept at 37°C. The procedure was repeated 5–6 times until an optically clear dispersion appeared. The SUV was divided into two parts. To the first part 50 mM calcein was added and incubated for 1 h. The excess calcein was removed by injecting 100 µL of the calcien-loaded SUV’s into a Ultrahydrogel™ 250 (7.8 mm × 300 mm) column equilibrated with 20 mM PBS (pH 7.0) and eluted isochratically at a flow rate of 1 mL/min for 1.5 column volumes. The calcein-loaded liposomes were mixed with calcein-free liposome (1∶1) to adjust final liposome concentration. Peptide concentration was added to obtain 1∶30 or 1∶15 peptide:liposome ratio. Changes in the fluorescence signal after addition of peptide or Triton X-100 was measured on a PTI spectrofluorometer, using an excitation wavelength of 480 nm and emission wavelength of 512 nm. The Percentage calcein released at each time point was calculated using the equation, [drawing 1]
# Where A0 is the observed fluorescence intensity upon addition of peptides, Amin is the average intensity at the baseline (before peptide addition), Amax is the average intensity at the saturation phase after adding 1% Triton X-100. Similar protocol was followed for the preparation of PC/Cholesterol SUVs.
# F. solani ATCC36031 = test: microbe, parasite or virus in culture; format: cell-based; conditions: ATCC36031, 48 h
# F. solani DM3782 = test: microbe, parasite or virus in culture; format: cell-based; conditions: 48 h
structure (smiles),measurement,setting,value
"CC(C)[C@H](NC(=O)[C@H](CCCCN)NC(=O)[C@H](CCCNC(=N)N)NC(=O)CNC(=O)[C@@H](N)CCCNC(=N)N)C(=O)N[C@H](C(=O)N[C@@H](CCCNC(=N)N)C(=O)N[C@@H](CCCNC(=N)N)C(=O)NCCCC[C@H](NC(=O)[C@H](CCCNC(=N)N)NC(=O)[C@H](CCCNC(=N)N)NC(=O)[C@@H](NC(=O)[C@@H](NC(=O)[C@H](CCCCN)NC(=O)[C@H](CCCNC(=N)N)NC(=O)CNC(=O)[C@@H](N)CCCNC(=N)N)C(C)C)C(C)C)C(=O)NCCCC[C@H](NC(=O)[C@H](CCCCNC(=O)[C@H](CCCNC(=N)N)NC(=O)[C@H](CCCNC(=N)N)NC(=O)[C@@H](NC(=O)[C@@H](NC(=O)[C@H](CCCCN)NC(=O)[C@H](CCCNC(=N)N)NC(=O)CNC(=O)[C@@H](N)CCCNC(=N)N)C(C)C)C(C)C)NC(=O)[C@H](CCCNC(=N)N)NC(=O)[C@H](CCCNC(=N)N)NC(=O)[C@@H](NC(=O)[C@@H](NC(=O)[C@H](CCCCN)NC(=O)[C@H](CCCNC(=N)N)NC(=O)CNC(=O)[C@@H](N)CCCNC(=N)N)C(C)C)C(C)C)C(=O)N[C@@H](CCCCN)C(=O)O)C(C)C [B4010] (I: H-RGRKVVRRKKK-OH / II: H-RGRKVVRRK / III: H-RGRKVVRR / IV: H-RGRKVVRR; amide I:9-IV:C, I:10-II:C, II:9-III:C; N-terminus and C-terminus assumed)","remaining at 6 h, 1 mg/mL",[1],~20%
same,viable cells,C. albicans ATCC 10231,40%
same,"hemolysis at 1 h, 440 µM",Haemolytic assay,< 1%
same,MIC,F. solani DF1500,1.4 µM
same,% Calcein released from PC/PE/PS/Erg,[2],~68%
same,dye (calcein) release,[2],~46%
same,MIC,F. solani ATCC36031,1.4 µM
same,MIC,F. solani DM3782,1.4 µM
